Laboratory results taken from patent US6608082B1, “Treatment of erectile dysfunction using isoquinoline compound melanocortin receptor ligands” (Lion Bioscience AG, priority 1998, dated 2003).
Like-named read-outs stand apart in the source and are kept apart here.

Experiments:
MCR-1 = target: T1, MCR-1 (Homo sapiens, UniProt Q01726); assay: Melanocortin receptor binding assay, competition with 125I-HP 467, HEK 293 cells expressing hMCR-1; conditions: inhibition of binding of 125I-HP 467, HEK 293 cells expressing MCR-1; for IC50: read-out: MC-1 IC50
T1 construct: expressed in transfected cells; host or cells: HEK 293
How it was run: (§1)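 Test compounds compete on intact HEK 293 cells carrying hMCR-1 (2×10^4 per tube) or hMCR-4 (4×10^3 per tube), suspended in PBS, 10% calf serum, 1 mM CaCl2.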

MCR-4 = target: T2, MCR-4 (Homo sapiens, UniProt P32245); assay: Melanocortin receptor binding assay, competition with 125I-HP 467, HEK 293 cells expressing hMCR-4; conditions: inhibition of binding of 125I-HP 467, HEK 293 cells expressing MCR-4, read-out: MC-4 IC50
T2 construct: expressed in transfected cells; host or cells: HEK 293
How it was run: as §1

T1 sequence (Q01726 whole entry): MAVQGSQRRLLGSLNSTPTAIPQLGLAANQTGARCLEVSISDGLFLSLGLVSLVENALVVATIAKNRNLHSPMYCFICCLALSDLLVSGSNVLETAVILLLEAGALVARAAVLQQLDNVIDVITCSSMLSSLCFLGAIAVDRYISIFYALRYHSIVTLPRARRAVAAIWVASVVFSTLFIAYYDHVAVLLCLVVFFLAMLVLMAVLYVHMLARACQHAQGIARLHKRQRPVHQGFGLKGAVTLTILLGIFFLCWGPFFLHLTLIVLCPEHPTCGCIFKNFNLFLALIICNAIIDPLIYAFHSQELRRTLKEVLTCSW
T2 sequence (P32245 whole entry): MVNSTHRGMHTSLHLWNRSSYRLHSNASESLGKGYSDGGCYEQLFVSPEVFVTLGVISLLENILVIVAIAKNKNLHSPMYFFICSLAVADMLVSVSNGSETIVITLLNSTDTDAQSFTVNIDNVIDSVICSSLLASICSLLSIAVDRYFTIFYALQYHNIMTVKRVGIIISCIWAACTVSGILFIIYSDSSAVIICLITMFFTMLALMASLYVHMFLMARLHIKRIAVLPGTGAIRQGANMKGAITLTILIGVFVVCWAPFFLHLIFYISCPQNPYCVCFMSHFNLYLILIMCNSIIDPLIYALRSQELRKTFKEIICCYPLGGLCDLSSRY

Work on `CCCCNc1ccc(C2C(CNCCc3ccccc3)c3ccccc3CN2CCCC(CN)NCCc2ccc(Br)cc2)cc1` (stereo not drawn) [TRG 2411-194] yielded an IC50 (MCR-1) of 240 nM and an IC50 (MCR-4) of 1360 nM.
With `CCCCNc1ccc(C2C(CNCCc3ccccc3)c3ccccc3CN2CCCC(CN)NCCc2ccc(OC)cc2)cc1` (stereo not drawn) [TRG 2411-195] the IC50 (MCR-1) was 160 nM and the IC50 (MCR-4) was 1440 nM.
`CCCCNc1ccc(C2C(CNCCc3ccccc3)c3ccccc3CN2CCCC(CN)NCc2ccccc2)cc1` (stereo not drawn) [TRG 2411-196] was tested, and the IC50 (MCR-1) was 120 nM and the IC50 (MCR-4) was 1050 nM.
In the case of `CCCCNc1ccc(C2C(CNCCc3ccccc3)c3ccccc3CN2CCCC(CN)NCCC2CCCCC2)cc1` (stereo not drawn) [TRG 2411-200], the IC50 (MCR-1) is reported as 130 nM and the IC50 (MCR-4) is reported as 1340 nM.
`CCCCNc1ccc(C2C(CNC3CCCCC3)c3ccccc3CN2CCCC(CN)NCCc2ccc(Br)cc2)cc1` (stereo not drawn) [TRG 2411-208] was tested, and the IC50 (MCR-1) was 470 nM and the IC50 (MCR-4) was 860 nM.
Work on `CCCCNc1ccc(C2C(CNC3CCCCC3)c3ccccc3CN2CCCC(CN)NCCc2ccc(OC)cc2)cc1` (stereo not drawn) [TRG 2411-209] yielded an IC50 (MCR-1) of 350 nM and an IC50 (MCR-4) of 1330 nM.
Work on `CCCCNc1ccc(C2C(CNC3CCCCC3)c3ccccc3CN2CCCC(CN)NCc2ccc(OC)cc2)cc1` (stereo not drawn) [TRG 2411-212] yielded an IC50 (MCR-1) of 100 nM and an IC50 (MCR-4) of 1930 nM.
In the case of `CCCCNc1ccc(C2C(CNC3CCCCC3)c3ccccc3CN2CCCC(CN)NCCc2ccc3ccccc3c2)cc1` (stereo not drawn) [TRG 2411-213], the IC50 (MCR-1) is reported as 220 nM and the IC50 (MCR-4) is reported as 1950 nM.
Work on `CCCCNc1ccc(C2C(CN)c3ccccc3CN2CCCC(CN)NCC)cc1` (stereo not drawn) [TRG 2411-218] yielded an IC50 (MCR-1) of 70 nM and an IC50 (MCR-4) of 9590 nM.
`CCCCNc1ccc(C2C(CN)c3ccccc3CN2CCCC(CN)NCCCC)cc1` (stereo not drawn) [TRG 2411-219] showed an IC50 (MCR-1) of 100 nM and an IC50 (MCR-4) of 2970 nM.
`CCOc1ccc(C2C(CNCCc3ccccc3)c3ccccc3CN2CCCCC(CN)NC)cc1` (stereo not drawn) [TRG 2412-4] showed an IC50 (MCR-1) of 310 nM and an IC50 (MCR-4) of 320 nM.
`CCCCCNc1ccc(C2C(CNCCc3ccccc3)c3ccccc3CN2CCCC(CN)NC)cc1` (stereo not drawn) [TRG 2412-16] showed an IC50 (MCR-1) of 90 nM and an IC50 (MCR-4) of 1480 nM.
`CCCCCNc1ccc(C2C(CNCCc3ccccc3)c3ccccc3CN2CCCC(CN)NCCc2ccccc2)cc1` (stereo not drawn) [TRG 2412-17] showed an IC50 (MCR-1) of 270 nM and an IC50 (MCR-4) of 1150 nM.
`CCOc1ccc(C2C(CNCCc3ccccc3)c3ccccc3CN2CCCC(CN)NCc2ccccc2)cc1` (stereo not drawn) [TRG 2412-21] was tested, and the IC50 (MCR-1) was 170 nM and the IC50 (MCR-4) was 230 nM.
For `CCCCOc1ccc(C2C(CNCCc3ccccc3)c3ccccc3CN2CCCC(CN)NC)cc1` (stereo not drawn) [TRG 2412-25], the IC50 (MCR-1) was 160 nM and the IC50 (MCR-4) was 1060 nM.
For `CCCCCc1ccc(C2C(CNCCc3ccccc3)c3ccccc3CN2CCCC(CN)NCc2ccccc2)cc1` (stereo not drawn) [TRG 2412-30], the IC50 (MCR-1) was 620 nM and the IC50 (MCR-4) was 1060 nM.
Compound `CCNc1ccc(C2C(CNCCc3ccccc3)c3ccccc3CN2CCCC(CN)NCCc2ccccc2)cc1` (stereo not drawn) [TRG 2413-9] has an IC50 (MCR-1) of 260 nM and an IC50 (MCR-4) of 1340 nM.
Work on `CNC(CN)CCCN1Cc2ccccc2C(CNCCc2ccccc2)C1c1ccc([N+](=O)[O-])cc1` (stereo not drawn) [TRG 2413-16] yielded an IC50 (MCR-1) of 1270 nM and an IC50 (MCR-4) of 400 nM.
Work on `COc1ccccc1CCNCC1c2ccccc2CN(CCCCC(CN)NCCc2ccccc2)C1c1ccc(Cl)cc1Cl` (stereo not drawn) [TRG 2414-10] yielded an IC50 (MCR-1; TRG 2414 library) of 2930 nM and an IC50 (MCR-4; TRG 2414 library) of 4880 nM.
Work on `COc1ccccc1CCNCC1c2ccccc2CN(CCCCC(CN)NCC(C)c2ccc(CC(C)C)cc2)C1c1ccc(Cl)cc1Cl` (stereo not drawn) [TRG 2414-12] yielded an IC50 (MCR-1; TRG 2414 library) of 11700 nM and an IC50 (MCR-4; TRG 2414 library) of 34400 nM.
`NCC(N)CCCCN1Cc2ccccc2C(CNCCc2cccc(Cl)c2)C1c1ccc(Cl)cc1Cl` (stereo not drawn) [TRG 2414-13] showed an IC50 (MCR-1; TRG 2414 library) of 2180 nM and an IC50 (MCR-4; TRG 2414 library) of 1180 nM.
In the case of `NCC(CCCCN1Cc2ccccc2C(CNCCc2cccc(Cl)c2)C1c1ccc(Cl)cc1Cl)NCCc1ccccc1` (stereo not drawn) [TRG 2414-14], the IC50 (MCR-1; TRG 2414 library) is reported as 3230 nM and the IC50 (MCR-4; TRG 2414 library) is reported as 2920 nM.
`NC[C@H](CCCCN1Cc2ccccc2C(CNCCc2cccc(Cl)c2)C1c1ccc(Cl)cc1Cl)NCc1ccccc1` (stereo partly drawn) [TRG 2414-15] gave an IC50 (MCR-1; TRG 2414 library) of 6410 nM and an IC50 (MCR-4; TRG 2414 library) of 6930 nM.
`CC(C)Cc1ccc(C(C)CNC(CN)CCCCN2Cc3ccccc3C(CNCCc3cccc(Cl)c3)C2c2ccc(Cl)cc2Cl)cc1` (stereo not drawn) [TRG 2414-16] was tested, and the “MC-1 IC50” value (MCR-1; TRG 2414 library) was “no fit” and the IC50 (MCR-4; TRG 2414 library) was 33400 nM.
`COc1cccc(CNCC2c3ccccc3CN(CCCCC(N)CN)C2c2ccc(Cl)cc2Cl)c1` (stereo not drawn) [TRG 2414-17] gave an IC50 (MCR-1; TRG 2414 library) of 3080 nM and an IC50 (MCR-4; TRG 2414 library) of 1630 nM.
Compound `COc1cccc(CNCC2c3ccccc3CN(CCCCC(CN)NCCc3ccccc3)C2c2ccc(Cl)cc2Cl)c1` (stereo not drawn) [TRG 2414-18] has an IC50 (MCR-1; TRG 2414 library) of 4970 nM and an IC50 (MCR-4; TRG 2414 library) of 8220 nM.
For `COc1cccc(CNCC2c3ccccc3CN(CCCCC(CN)NCc3ccccc3)C2c2ccc(Cl)cc2Cl)c1` (stereo not drawn) [TRG 2414-19], the IC50 (MCR-1; TRG 2414 library) was 3270 nM and the IC50 (MCR-4; TRG 2414 library) was 7310 nM.
